Columns and labels:
[1] = biological target: T1, Metabotropic glutamate receptor 4 (Homo sapiens, UniProt Q14833); test: Positive allosteric modulation of human mGlu4 receptor expressed in BHK cells assessed as potentiation of glutamate-induced calcium mobilization by FLIPR analysis; assay type: functional, cell-based
[2] = biological target: T1, Metabotropic glutamate receptor 4; test: Positive allosteric modulation of human mGlu4 receptor expressed in BHK cells assessed as potentiation of glutamate-induced calcium mobilization by FLIPR analysis relative to PHCCC; assay type: functional, cell-based

T1 sequence (Q14833 whole entry): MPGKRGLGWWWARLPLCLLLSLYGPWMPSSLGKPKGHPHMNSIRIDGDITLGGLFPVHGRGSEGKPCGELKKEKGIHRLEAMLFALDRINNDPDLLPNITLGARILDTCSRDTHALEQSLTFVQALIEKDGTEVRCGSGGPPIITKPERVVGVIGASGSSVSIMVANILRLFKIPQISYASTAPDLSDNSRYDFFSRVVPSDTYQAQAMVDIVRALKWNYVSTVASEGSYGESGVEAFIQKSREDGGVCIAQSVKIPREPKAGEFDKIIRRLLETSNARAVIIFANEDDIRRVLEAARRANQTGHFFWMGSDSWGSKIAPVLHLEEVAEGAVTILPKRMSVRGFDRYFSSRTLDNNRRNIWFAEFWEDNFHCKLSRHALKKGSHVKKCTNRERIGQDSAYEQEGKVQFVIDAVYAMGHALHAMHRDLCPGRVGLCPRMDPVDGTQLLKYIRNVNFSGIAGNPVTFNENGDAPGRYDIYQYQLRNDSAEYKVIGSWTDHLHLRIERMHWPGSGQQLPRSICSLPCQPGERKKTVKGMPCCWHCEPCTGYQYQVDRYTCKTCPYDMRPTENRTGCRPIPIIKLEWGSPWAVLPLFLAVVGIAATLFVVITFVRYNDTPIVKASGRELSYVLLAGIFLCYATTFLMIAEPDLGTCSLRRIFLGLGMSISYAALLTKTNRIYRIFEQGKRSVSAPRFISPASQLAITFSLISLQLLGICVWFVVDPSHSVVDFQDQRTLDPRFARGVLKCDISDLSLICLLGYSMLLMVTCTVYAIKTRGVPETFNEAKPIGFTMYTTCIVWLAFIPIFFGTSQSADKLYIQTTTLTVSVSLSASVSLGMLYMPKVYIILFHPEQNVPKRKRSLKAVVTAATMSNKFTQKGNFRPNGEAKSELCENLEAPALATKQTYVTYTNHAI

SMILES	EC50 [1] [nM]	Emax [2] [%]
Cc1nn(-c2ccccc2)cc1-c1ccnc2ccccc12	480	130
O=C(COc1ccc2c(-c3cnn(-c4ccccc4)c3)ccnc2c1)N1CCOCC1	> 10000	17
c1ccc(-n2cc(-c3ncnc4ccccc34)cn2)cc1	3500	35
Clc1ccc2c(-c3cnn(-c4ccccc4)c3)ccnc2c1	590	100
Fc1ccc(-n2cc(-c3ccnc4ccccc34)cn2)cc1	2900	110
c1ccc(-n2cc(-c3ccnc4cc(OCCCN5CCOCC5)ccc34)cn2)cc1	2800	64
Cc1c(-c2ccnc3ccccc23)cnn1-c1ccccc1	670	130
CN(C)CCOc1ccc2c(-c3cnn(-c4ccccc4)c3)ccnc2c1	> 10000	23
c1ccc2c(-c3cn[nH]c3)ccnc2c1	> 10000	6
c1ccc(-n2cc(-c3ccnc4cc(OCCN5CCCCC5)ccc34)cn2)cc1	6000	71
Fc1ccc2c(-c3cnn(-c4ccccc4)c3)ccnc2c1	730	120
OCCCOc1ccc2c(-c3cnn(-c4ccccc4)c3)ccnc2c1	> 10000	23
CN(C)C(=O)COc1ccc2c(-c3cnn(-c4ccccc4)c3)ccnc2c1	> 10000	11
c1ccc(COc2ccc3c(-c4cnn(-c5ccccc5)c4)ccnc3c2)cc1	640	110
c1ccc(-n2cc(-c3n[nH]c4ccccc34)cn2)cc1	2400	42

Next, values leading:

EC50 [1] [nM]	Emax [2] [%]	SMILES
2300	65	c1ccc(-n2cc(-c3ccnc4c3CCC4)cn2)cc1
390	110	COCCOc1ccc2c(-c3cnn(-c4ccccc4)c3)ccnc2c1
2100	92	c1ccc(-n2cc(-c3ccnc4ccccc34)cn2)nc1
5100	90	Cc1cnccc1-c1cnn(-c2ccccc2)c1
> 10000	7	c1ccc(-n2cc(-c3ccnc4cc(OCCCN5CCCC5)ccc34)cn2)cc1
900	84	O=C(Oc1ccc2c(-c3cnn(-c4ccccc4)c3)ccnc2c1)N1CCOCC1
690	75	CC(=O)N1CCN(CCOc2ccc3c(-c4cnn(-c5ccccc5)c4)ccnc3c2)CC1
